{"source": "patent US12186317B2", "about": "“Inhibitors of alpha-amino-beta-carboxymuconic acid semialdehyde decarboxylase” (TES Pharma S.r.l., priority 2018, dated 2025)", "biological_target": "T1, hACMSD (ACMSD1) (Homo sapiens, UniProt Q8TDX5)", "T1 construct": "made in house; host or cells: Pichia pastoris", "T1 sequence (Q8TDX5 whole entry)": "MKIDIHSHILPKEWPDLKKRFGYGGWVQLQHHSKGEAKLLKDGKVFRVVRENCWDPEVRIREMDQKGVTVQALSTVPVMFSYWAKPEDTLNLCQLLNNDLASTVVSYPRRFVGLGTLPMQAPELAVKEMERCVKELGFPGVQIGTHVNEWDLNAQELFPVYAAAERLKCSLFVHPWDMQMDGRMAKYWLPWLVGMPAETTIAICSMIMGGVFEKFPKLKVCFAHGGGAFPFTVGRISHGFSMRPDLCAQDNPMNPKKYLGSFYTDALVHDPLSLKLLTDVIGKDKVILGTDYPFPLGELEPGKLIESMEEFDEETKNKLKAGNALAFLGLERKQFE", "experiment": "Determination of ACMSD1 inhibition, spectrophotometrical in vitro assay (conversion of 3OH-anthranilic acid into ACMS)", "format": "biochemical", "conditions": "HAA concentration of 10 μM; recombinant ACMSD1 from Pichia pastoris; 25° C.; absorbance at 360 nm", "method": "The activity of compounds as inhibitors of ACMSD1 is determined in a spectrophotometrical in vitro assay. The pre-assay mixture is incubated and a compound of Formula (I) or (II), or a pharmaceutically acceptable salt thereof, and ACMSD1 solution is then added. The effect of ACMS concentration on the enzyme activity is investigated by varying 3-hydroxyanthranilic acid (30H-HA) concentration in the pre-assay mixture. Kinetic parameters are calculated from the initial velocity data using a Lineweaver-Burk plot.\nThe pre-assay mixture consisting of 3-hydroxyanthranilic acid (30H-HA), 3-hydroxyanthranilic acid, 3,4-diOxygenase (HAO), and a dialyzed crude extract of E. coli BL21 (DE3) cells expressing the recombinant enzyme, was incubated at 25° C. with monitoring of the increase in absorbance at 360 nm due to the formation of ACMS from 30H-HA. After the reaction was completed within ˜2 mins, an aliquot of ACMSD1 solution (prepared and purified from Pichia pastoris overexpressing the recombinant enzyme) was added, and the decrease in absorbance at 360 nm was followed at 15 second intervals. The effect of ACMS concentration on the enzyme activity was investigated by varying 30H-HA concentration from 2 to 20 μM. Kinetic parameters were calculated from the initial velocity data by using the Lineweaver-Burk plot.\nThe rate of the decrease in absorbance caused by ACMSD1 was calculated by subtracting that of the control reaction mixture without ACMSD from that described above. One unit of ACMSD activity was indicated as the amount of enzyme that converts 1 mmol of ACMS per minute at 25° C.\nThe enzymatic activity was determined at a HAA concentration of 10 μM in the presence of the compounds in Table 1 below. […] In Table 1, A is <0.1 μM; B is 0.1 to 1 μM; C is 1 to 10 μM; and D is >10 μM.", "data": [{"smiles": "CCOC(=O)Cc1cccc(CSc2nc(-c3cccs3)c(C#N)c(=O)[nH]2)c1", "note": "[I-1, [3-(5-Cyano-6-oxo-4-thiophen-2-yl-1,6-dihydro-pyrimidin-2-ylsulfanylmethyl)-phenyl]-acetic acid ethyl ester]", "values": [{"measurement": "IC50", "result": "1000 to 10000", "unit": "nM"}]}, {"smiles": "N#Cc1c(-c2cccs2)nc(SCc2cccc(C(N)=O)c2)[nH]c1=O", "note": "[I-2, 3-(5-Cyano-6-oxo-4-thiophen-2-yl-1,6-dihydro-pyrimidin-2-ylsulfanylmethyl)-benzamide]", "values": [{"measurement": "IC50", "result": "100 to 1000", "unit": "nM"}]}, {"smiles": "N#Cc1c(-c2cccs2)nc(SCc2cccc(-c3cc(F)c(O)c(F)c3)c2)[nH]c1=O", "note": "[I-3, 2-({[3-(3,5-difluoro-4-hydroxyphenyl)phenyl]methyl}sulfanyl)-6-oxo-4-(thiophen-2-yl)-1,6-dihydropyrimidine-5-carbonitrile]", "values": [{"measurement": "IC50", "result": "< 100", "unit": "nM"}]}, {"smiles": "COc1nc(SCc2cccc(CC(=O)O)c2)nc(-c2cccs2)c1C#N", "note": "[I-4, [3-(5-Cyano-4-methoxy-6-thiophen-2-yl-pyrimidin-2-ylsulfanylmethyl)-phenyl]-acetic acid]", "values": [{"measurement": "IC50", "result": "1000 to 10000", "unit": "nM"}]}, {"smiles": "N#Cc1c(Br)nc(SCc2cccc(CC(=O)O)c2)nc1-c1cccs1", "note": "[I-5, [3-(4-Bromo-5-cyano-6-thiophen-2-yl-pyrimidin-2-ylsulfanylmethyl)-phenyl]-acetic acid]", "values": [{"measurement": "IC50", "result": "100 to 1000", "unit": "nM"}]}, {"smiles": "N#Cc1c(NC2CC2)nc(SCc2cccc(CC(=O)O)c2)nc1-c1cccs1", "note": "[I-6, [3-(5-Cyano-4-cyclopropylamino-6-thiophen-2-yl-pyrimidin-2-ylsulfanylmethyl)-phenyl]-acetic acid]", "values": [{"measurement": "IC50", "result": "1000 to 10000", "unit": "nM"}]}, {"smiles": "N#Cc1c(N)nc(SCc2cccc(CC(=O)O)c2)nc1-c1cccs1", "note": "[I-7, [3-(4-Amino-5-cyano-6-thiophen-2-yl-pyrimidin-2-ylsulfanylmethyl)-phenyl]-acetic acid]", "values": [{"measurement": "IC50", "result": "100 to 1000", "unit": "nM"}]}, {"smiles": "N#Cc1cnc(SCc2cccc(CC(=O)O)c2)nc1-c1cccs1", "note": "[I-8, [3-(5-Cyano-6-thiophen-2-yl-pyrimidin-2-ylsulfanylmethyl)-phenyl]-acetic acid]", "values": [{"measurement": "IC50", "result": "100 to 1000", "unit": "nM"}]}, {"smiles": "CNc1nc(SCc2cccc(CC(=O)O)c2)nc(-c2cccs2)c1C#N", "note": "[I-9, [3-(5-Cyano-4-methylamino-6-thiophen-2-yl-pyrimidin-2-ylsulfanylmethyl)-phenyl]-acetic acid]", "values": [{"measurement": "IC50", "result": "100 to 1000", "unit": "nM"}]}, {"smiles": "CNc1nc(SCc2cccc(C(=O)O)c2)nc(-c2cccs2)c1C#N", "note": "[I-10, 3-(5-Cyano-4-methylamino-6-thiophen-2-yl-pyrimidin-2-ylsulfanylmethyl)-benzoic acid]", "values": [{"measurement": "IC50", "result": "1000 to 10000", "unit": "nM"}]}, {"smiles": "N#Cc1cccc(CSc2nc(-c3cccs3)c(C#N)c(=O)[nH]2)c1", "note": "[I-11, 2-(3-Cyano-benzylsulfanyl)-6-oxo-4-thiophen-2-yl-1,6-dihydro-pyrimidine-5-carbonitrile]", "values": [{"measurement": "IC50", "result": "1000 to 10000", "unit": "nM"}]}, {"smiles": "N#Cc1c(-c2cccs2)nc(SCc2cccc(CCO)c2)[nH]c1=O", "note": "[I-12, 2-[3-(2-Hydroxy-ethyl)-benzylsulfanyl]-6-oxo-4-thiophen-2-yl-1,6-dihydropyrimidine-5-carbonitrile]", "values": [{"measurement": "IC50", "result": "1000 to 10000", "unit": "nM"}]}, {"smiles": "N#CCc1cccc(CSc2nc(-c3cccs3)c(C#N)c(=O)[nH]2)c1", "note": "[I-13, 2-(3-Cyanomethyl-benzylsulfanyl)-6-oxo-4-thiophen-2-yl-1,6-dihydro-pyrimidine-5-carbonitrile]", "values": [{"measurement": "IC50", "result": "1000 to 10000", "unit": "nM"}]}, {"smiles": "Cn1nnc(-c2cccc(CSc3nc(-c4cccs4)c(C#N)c(=O)[nH]3)c2)n1", "note": "[I-14, 2-[3-(2-Methyl-2H-tetrazol-5-yl)-benzylsulfanyl]-6-oxo-4-thiophen-2-yl-1,6-dihydro-pyrimidine-5-carbonitrile]", "values": [{"measurement": "IC50", "result": "1000 to 10000", "unit": "nM"}]}, {"smiles": "N#Cc1c(-c2cccs2)nc(SCc2cccc(CC(=O)O)c2)nc1N1CCOCC1", "note": "[I-15, [3-(5-Cyano-4-morpholin-4-yl-6-thiophen-2-yl-pyrimidin-2-ylsulfanylmethyl)-phenyl]-acetic acid]", "values": [{"measurement": "IC50", "result": "1000 to 10000", "unit": "nM"}]}, {"smiles": "N#Cc1c(-c2cccs2)nc(SCc2cccc(CC(=O)O)c2)nc1N1CCNCC1", "note": "[I-16, [3-(5-Cyano-4-piperazin-1-yl-6-thiophen-2-yl-pyrimidin-2-ylsulfanylmethyl)-phenyl]-acetic acid]", "values": [{"measurement": "IC50", "result": "> 10000", "unit": "nM"}]}, {"smiles": "CCOC(=O)Cc1cccc(CSc2nc(=O)c(C#N)c(-c3cccs3)n2C)c1", "note": "[I-17, [3-(5-Cyano-1-methyl-4-oxo-6-thiophen-2-yl-1,4-dihydro-pyrimidin-2-ylsulfanylmethyl)-phenyl]-acetic acid ethyl ester]", "values": [{"measurement": "IC50", "result": "> 10000", "unit": "nM"}]}, {"smiles": "N#Cc1c(-c2cccs2)nc(SCc2cccc(S(N)(=O)=O)c2)[nH]c1=O", "note": "[I-18, 3-(5-Cyano-6-oxo-4-thiophen-2-yl-1,6-dihydro-pyrimidin-2-ylsulfanylmethyl)-benzenesulfonamide]", "values": [{"measurement": "IC50", "result": "100 to 1000", "unit": "nM"}]}, {"smiles": "N#Cc1c(-c2ccccc2)cc(=O)[nH]c1SCc1cccc(CC(=O)O)c1", "note": "[I-19, [3-(3-Cyano-6-oxo-4-phenyl-1,6-dihydro-pyridin-2-ylsulfanylmethyl)-phenyl]-acetic acid]", "values": [{"measurement": "IC50", "result": "< 100", "unit": "nM"}]}, {"smiles": "N#Cc1c(-c2cccs2)cc(=O)[nH]c1SCc1cccc(CC(=O)O)c1", "note": "[I-20, [3-(3-Cyano-6-oxo-4-thiophen-2-yl-1,6-dihydro-pyridin-2-ylsulfanylmethyl)-phenyl]-acetic acid]", "values": [{"measurement": "IC50", "result": "< 100", "unit": "nM"}]}, {"smiles": "N#Cc1c(SCc2cccc(CC(=O)O)c2)[nH]c(=O)c(C#N)c1-c1cccs1", "note": "[I-21, [3-(3,5-Dicyano-6-oxo-4-thiophen-2-yl-1,6-dihydro-pyridin-2-ylsulfanylmethyl)-phenyl]-acetic acid]", "values": [{"measurement": "IC50", "result": "< 100", "unit": "nM"}]}, {"smiles": "N#Cc1c(SCc2cccc(-c3nnn[nH]3)c2)[nH]c(=O)c(C#N)c1-c1cccs1", "note": "[I-22, 2-Oxo-6-[3-(1H-tetrazol-5-yl)-benzylsulfanyl]-4-thiophen-2-yl-1,2-dihydro-pyridine-3,5-dicarbonitrile]", "values": [{"measurement": "IC50", "result": "< 100", "unit": "nM"}]}, {"smiles": "N#Cc1c(Cc2ccccc2)cc(=O)[nH]c1SCc1cccc(CC(=O)O)c1", "note": "[I-23, [3-(4-Benzyl-3-cyano-6-oxo-1,6-dihydro-pyridin-2-ylsulfanylmethyl)-phenyl]-acetic acid]", "values": [{"measurement": "IC50", "result": "1000 to 10000", "unit": "nM"}]}, {"smiles": "N#Cc1c(-c2cccs2)nc(SCC(=O)O)[nH]c1=O", "note": "[I-24, (5-Cyano-6-oxo-4-thiophen-2-yl-1,6-dihydro-pyrimidin-2-ylsulfanyl)-acetic acid]", "values": [{"measurement": "IC50", "result": "1000 to 10000", "unit": "nM"}]}, {"smiles": "N#Cc1c(-c2cccs2)nc(SCc2nnn[nH]2)[nH]c1=O", "note": "[I-25, 6-Oxo-2-(1H-tetrazol-5-ylmethylsulfanyl)-4-thiophen-2-yl-1,6-dihydro-pyrimidine-5-carbonitrile]", "values": [{"measurement": "IC50", "result": "< 100", "unit": "nM"}]}, {"smiles": "O=c1cc(C(F)(F)F)nc(SCc2nnn[nH]2)[nH]1", "note": "[I-26, 2-(1H-Tetrazol-5-ylmethylsulfanyl)-6-trifluoromethyl-3H-pyrimidin-4-one]", "values": [{"measurement": "IC50", "result": "< 100", "unit": "nM"}]}, {"smiles": "O=C(O)CSc1nc(C(F)(F)F)cc(=O)[nH]1", "note": "[I-27, (6-Oxo-4-trifluoromethyl-1,6-dihydro-pyrimidin-2-ylsulfanyl)-acetic acid]", "values": [{"measurement": "IC50", "result": "100 to 1000", "unit": "nM"}]}, {"smiles": "O=C(O)Cc1cccc(CSc2nc(C(F)(F)F)cc(=O)[nH]2)c1", "note": "[I-28, [3-(6-Oxo-4-trifluoromethyl-1,6-dihydro-pyrimidin-2-ylsulfanylmethyl)-phenyl]-acetic acid]", "values": [{"measurement": "IC50", "result": "100 to 1000", "unit": "nM"}]}, {"smiles": "N#Cc1c(Cc2ccccc2)nc(SCC(=O)O)[nH]c1=O", "note": "[I-30, (4-Benzyl-5-cyano-6-oxo-1,6-dihydro-pyrimidin-2-ylsulfanyl)-acetic acid]", "values": [{"measurement": "IC50", "result": "100 to 1000", "unit": "nM"}]}, {"smiles": "O=C(O)c1cccc(CSc2nc(C(F)(F)F)cc(=O)[nH]2)c1", "note": "[I-31, 3-(6-Oxo-4-trifluoromethyl-1,6-dihydro-pyrimidin-2-ylsulfanylmethyl)-benzoic acid]", "values": [{"measurement": "IC50", "result": "1000 to 10000", "unit": "nM"}]}, {"smiles": "N#Cc1c(Cc2ccccc2)nc(SCc2nnn[nH]2)[nH]c1=O", "note": "[I-32]", "values": [{"measurement": "IC50", "result": "< 100", "unit": "nM"}]}, {"smiles": "N#Cc1c(Cc2ccccc2)nc(SCc2cccc(CC(=O)O)c2)[nH]c1=O", "note": "[I-33, [3-(4-Benzyl-5-cyano-6-oxo-1,6-dihydro-pyrimidin-2-ylsulfanylmethyl)-phenyl]-acetic acid]", "values": [{"measurement": "IC50", "result": "< 100", "unit": "nM"}]}, {"smiles": "N#Cc1c(Cc2ccccc2)nc(SCc2cccc(-c3nnn[nH]3)c2)[nH]c1=O", "note": "[I-34, 4-Benzyl-6-oxo-2-[3-(1H-tetrazol-5-yl)-benzylsulfanyl]-1,6-dihydro-pyrimidine-5 carbonitrile]", "values": [{"measurement": "IC50", "result": "< 100", "unit": "nM"}]}, {"smiles": "N#Cc1c(Cc2ccccc2)nc(SCc2cccc(C(=O)O)c2)[nH]c1=O", "note": "[I-35, 3-(4-Benzyl-5-cyano-6-oxo-1,6-dihydro-pyrimidin-2-ylsulfanylmethyl)-benzoic acid]", "values": [{"measurement": "IC50", "result": "100 to 1000", "unit": "nM"}]}, {"smiles": "N#Cc1c(C(F)(F)F)cc(=O)[nH]c1SCc1cccc(CC(=O)O)c1", "note": "[I-36, [3-(3-cyano-6-oxo-4-trifluoromethyl-1,6-dihydro-pyridin-2-ylsulfanylmethyl)-phenyl]-acetic acid]", "values": [{"measurement": "IC50", "result": "100 to 1000", "unit": "nM"}]}, {"smiles": "N#Cc1c(-c2cccs2)nc(SCCC(=O)O)[nH]c1=O", "note": "[I-37]", "values": [{"measurement": "IC50", "result": "1000 to 10000", "unit": "nM"}]}, {"smiles": "N#Cc1c(-c2cccs2)nc(SCc2cc(F)c(O)c(F)c2)[nH]c1=O", "note": "[I-39, 2-(3,5-Difluoro-4-hydroxy-benzylsulfanyl)-6-oxo-4-thiophen-2-yl-1,6-dihydro-pyrimidine-5-carbonitrile]", "values": [{"measurement": "IC50", "result": "1000 to 10000", "unit": "nM"}]}, {"smiles": "N#Cc1c(Cc2ccccc2)nc(SCc2cc(F)c(O)c(F)c2)[nH]c1=O", "note": "[I-41, 4-Benzyl-2-(3,5-difluoro-4-hydroxy-benzylsulfanyl)-6-oxo-1,6-dihydro-pyrimidine-5-carbonitrile]", "values": [{"measurement": "IC50", "result": "1000 to 10000", "unit": "nM"}]}]}
